Measured values taken from the supplement of paper PMC10307832.

Legend:
Experiment in all cases: relative viability (nuclei count vs DMSO), 5 days (fraction); higher = more cells survive
[1] = compound: CC(C)C[C@@H](C(=O)N[C@H](C(=O)OC1CCCC1)c1ccccc1)[C@H](O)C(=O)NO [Tosedostat] + COc1cc2c(Oc3ccc(NC(=O)C4(C(=O)Nc5ccc(F)cc5)CC4)cc3F)ccnc2cc1OCCCN1CCOCC1 [Foretinib] (partner 0.25 µM)
How it was run: (§1)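 Values are medians from duplicate plates. Each reflects relative viability, defined as the nuclei count of treated wells over that of vehicle wells. Lung cancer cell lines in 1536-well plates were pin-tool dosed one day after seeding with one drug alone or with a fixed anchor-drug dose plus five library-drug doses (not always all listed) in √10 steps, then fixed, stained and imaged at 4× after 5 days.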

[2] = compound: CC1=NN=C(O1)C2=NN=C(C=C2)N3CCC(CC3)OC4=C(C=CC(=C4)F)Cl + O=C(c1cc(Cc2n[nH]c(=O)c3ccccc23)ccc1F)N1CCN(C(=O)C2CC2)CC1 [Olaparib] (partner 8 µM)
How it was run: as §1

[3] = compound: CC(C)C[C@@H](C(=O)N[C@H](C(=O)OC1CCCC1)c1ccccc1)[C@H](O)C(=O)NO [Tosedostat] + CS(=O)(=O)N1CCN(Cc2cc3nc(-c4cccc5[nH]ncc45)nc(N4CCOCC4)c3s2)CC1 [Pictilisib] (partner 1 µM)
How it was run: as §1

[4] = compound: CC1=NN=C(O1)C2=NN=C(C=C2)N3CCC(CC3)OC4=C(C=CC(=C4)F)Cl + Cc1cc(Nc2cc(N3CCN(C)CC3)nc(Sc3ccc(NC(=O)C4CC4)cc3)n2)n[nH]1 [Tozasertib] (partner 0.1 µM)
How it was run: as §1

Cell Line | relative viability ([1]; first compound 0.02 µM) | relative viability ([1]; first compound 0.06325 µM) | relative viability ([1]; first compound 0.2 µM) | relative viability ([1]; first compound 0.6325 µM) | relative viability ([1]; first compound 2 µM) | relative viability ([2]; first compound 0.253 µM) | relative viability ([2]; first compound 0.8 µM) | relative viability ([2]; first compound 2.53 µM) | relative viability ([2]; first compound 8 µM) | relative viability ([3]; first compound 0.02 µM) | relative viability ([3]; first compound 0.06325 µM) | relative viability ([3]; first compound 0.2 µM) | relative viability ([3]; first compound 0.6325 µM) | relative viability ([3]; first compound 2 µM) | relative viability ([4]; first compound 0.253 µM) | relative viability ([4]; first compound 0.8 µM) | relative viability ([4]; first compound 2.53 µM) | relative viability ([4]; first compound 8 µM)
NCI-H2405 | 1.03 | 1.02 | 1.07 | 1.02 | 0.932 | 0.586 | 0.469 | 0.514 | 0.499 | 0.578 | 0.499 | 0.478 | 0.467 | 0.445 | 0.415 | 0.325 | 0.395 | 0.424
NCI-H520 | 0.807 | 0.776 |  | 0.834 | 0.819 | 0.308 | 0.346 | 0.294 | 0.259 | 0.261 | 0.277 | 0.3 | 0.283 | 0.396 |  | 0.38 | 0.398 | 0.443
NCI-H2085 | 0.919 | 0.971 | 0.915 | 0.965 | 0.875 | 0.636 | 0.604 | 0.709 | 0.553 | 0.445 | 0.518 | 0.512 | 0.593 | 0.481 | 0.454 | 0.614 | 0.538 | 0.515
NCI-H1944 | 0.984 | 0.787 | 0.864 | 0.822 | 0.773 | 0.289 | 0.337 | 0.359 | 0.344 | 0.368 | 0.37 | 0.363 | 0.352 | 0.356 | 0.22 | 0.216 | 0.213 | 0.229
LXF-289 | 0.981 | 1 | 1.04 | 0.943 | 0.962 | 0.829 | 0.632 | 0.902 | 0.788 | 0.818 | 0.766 | 0.752 | 0.784 | 0.676 | 0.181 | 0.141 | 0.179 | 0.131
NCI-H596 | 0.905 | 0.872 | 0.938 | 0.764 | 0.839 | 0.541 | 0.732 | 0.752 | 0.615 | 0.424 | 0.471 | 0.385 | 0.446 | 0.388 | 0.966 | 0.716 | 0.862 | 0.826
NCI-H441 | 0.906 | 1.1 | 0.992 | 0.63 | 0.604 | 0.355 | 0.353 | 0.349 | 0.383 | 0.549 | 0.443 | 0.461 | 0.379 | 0.328 | 0.457 | 0.388 | 0.423 | 0.419
NCI-H2126 | 1.12 | 1.27 | 1.25 | 1.07 | 1.12 | 0.816 | 0.697 | 0.767 | 0.76 | 0.506 | 0.533 | 0.513 | 0.437 | 0.472 | 0.765 | 0.786 | 0.763 | 0.715
HCC-15 | 1.08 | 0.995 | 1.02 | 0.96 | 0.849 | 0.354 | 0.305 | 0.348 | 0.337 | 0.777 | 0.731 | 0.638 | 0.572 | 0.501 | 0.281 | 0.29 | 0.274 | 0.278
HCC-44 |  |  |  |  |  | 0.295 | 0.358 | 0.346 | 0.363 | 0.666 | 0.689 | 0.527 | 0.695 | 0.378 | 0.545 | 0.564 | 0.513 | 0.487
COR-L23 | 1.04 | 1.03 | 0.975 | 1.07 | 1.06 | 0.259 | 0.271 | 0.345 | 0.299 | 0.955 | 0.784 | 0.666 | 0.649 | 0.745 | 0.166 | 0.131 | 0.145 | 0.121
NCI-H1299 | 1.15 | 1.14 | 1.14 | 1.04 | 0.966 | 0.741 | 0.722 | 0.717 | 0.664 | 0.813 | 0.77 | 0.646 | 0.485 | 0.316 |  |  |  | 
NCI-H1703 | 0.329 | 0.288 | 0.327 |  | 0.322 | 0.341 | 0.438 | 0.448 | 0.609 | 0.229 | 0.253 | 0.268 | 0.222 | 0.245 |  |  |  | 
NCI-H1563 | 0.961 | 0.997 | 0.958 | 1.12 | 1 |  |  |  |  | 0.636 | 0.657 | 0.708 | 0.712 | 0.616 |  |  |  | 
NCI-H1648 |  |  |  |  |  | 0.459 | 0.574 | 0.406 | 0.618 |  |  |  |  |  | 0.242 | 0.325 | 0.293 | 0.344
A549 | 0.925 | 0.967 | 0.998 | 0.974 | 0.652 | 0.235 | 0.0638 | 0.409 | 0.163 | 0.606 | 0.513 | 0.495 | 0.469 | 0.521 |  |  |  | 
NCI-H522 |  |  |  |  |  | 0.694 | 0.566 | 0.664 | 0.686 |  |  |  |  |  | 0.576 | 0.578 | 0.558 | 0.534
NCI-H1623 | 0.825 | 0.905 | 0.856 | 0.843 | 0.794 |  |  |  |  |  |  |  |  |  | 0.322 | 0.435 | 0.372 | 0.385
SW 900 | 0.854 | 0.904 | 0.709 | 0.765 | 0.61 |  | 0.801 | 0.776 | 0.802 |  |  |  |  |  |  |  | 0.415 | 0.477
IA-LM | 1.18 | 1.19 | 1.19 | 1.12 | 0.903 | 0.114 | 0.12 | 0.131 | 0.121 | 0.447 | 0.308 | 0.36 | 0.302 | 0.403 |  |  |  | 
EBC-1 | 0.112 | 0.0828 | 0.0952 | 0.115 | 0.117 | 0.485 | 0.538 | 0.509 | 0.438 | 0.361 | 0.417 | 0.232 | 0.266 | 0.281 |  |  |  | 
